Assay results reported in patent publication US20240424111A1, “Degrader Compounds and Uses Thereof” (CALICO LIFE SCIENCES LLC, priority 2021, published 2024).

Key:
PTPN2 [1] = target: T1, PTPN2 (Homo sapiens, UniProt P17706); assay: HiBiT PTPN2 degradation in 293T.109 (HiBiT-PTPN2) cells, 24 hours; format: cell-based; conditions: 293T.109 cells
T1 construct: expressed in transfected cells; host or cells: 293T.109 (HiBiT-PTPN2), derived from 293T WT (ATCC)
T1 sequence (P17706 1-415): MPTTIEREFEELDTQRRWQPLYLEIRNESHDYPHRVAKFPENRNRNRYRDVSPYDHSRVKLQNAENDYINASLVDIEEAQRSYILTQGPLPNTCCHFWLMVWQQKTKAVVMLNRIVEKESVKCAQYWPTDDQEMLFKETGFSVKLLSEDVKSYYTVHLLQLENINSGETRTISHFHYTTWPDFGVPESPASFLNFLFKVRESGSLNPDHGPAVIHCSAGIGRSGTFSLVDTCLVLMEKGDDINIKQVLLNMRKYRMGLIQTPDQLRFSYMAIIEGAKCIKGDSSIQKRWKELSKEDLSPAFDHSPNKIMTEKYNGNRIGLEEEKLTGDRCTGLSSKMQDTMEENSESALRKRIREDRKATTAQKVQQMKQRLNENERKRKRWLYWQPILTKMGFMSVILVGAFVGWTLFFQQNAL
Outline: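 293T cells stably expressing N-terminal HiBiT-tagged PTPN2 were treated for 24 h at 37 °C with compound in an 11-point half-log series from 10 μM top concentration, in duplicate. Remaining HiBiT-PTPN2 was measured by lytic luminescence, with untreated cells as the negative control and wells without lytic reagent as the positive control.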

PTPN2 [2] = target: T2, PTPN2 (Mus musculus, UniProt Q06180); assay: HiBiT PTPN2 degradation in B16F10.4 cells, 24 hours; format: cell-based
T2 construct: HiBiT; host or cells: B16F10.4
T2 sequence (Q06180 1-406): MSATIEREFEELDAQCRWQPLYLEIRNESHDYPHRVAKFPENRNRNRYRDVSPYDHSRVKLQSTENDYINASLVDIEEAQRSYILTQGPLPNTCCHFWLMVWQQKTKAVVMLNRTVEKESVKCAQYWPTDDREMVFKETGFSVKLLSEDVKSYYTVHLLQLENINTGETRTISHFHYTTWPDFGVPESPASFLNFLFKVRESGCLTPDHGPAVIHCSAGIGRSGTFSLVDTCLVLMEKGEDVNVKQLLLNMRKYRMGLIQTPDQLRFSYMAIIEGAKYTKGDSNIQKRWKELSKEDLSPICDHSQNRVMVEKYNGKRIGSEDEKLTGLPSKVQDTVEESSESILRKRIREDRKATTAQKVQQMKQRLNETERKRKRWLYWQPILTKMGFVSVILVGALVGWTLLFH
Outline: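 PTPN2 degradation was measured via luminescence from the Nano-Glo® HiBiT Lytic Assay kit. Compounds were dispensed into 384-well plates at an 11-point half-log titration in duplicate, starting at 10 μM. Cells were added at 5000 per well and held at 37° C. with 5% CO2 for 24 hours. Untreated cells were the negative control and cells without lytic reagent the positive control. Lytic reagents were then added and luminescence read on an EnVision™ Multilabel Reader.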

Row | SMILES | DC50 (PTPN2 [1]) | DC50 (PTPN2 [2])
1 | Cc1nn(C2CCC(=O)NC2=O)c2ccc(C3CCN(CC(=O)Nc4ccc5c(F)c(N6CC(=O)NS6(=O)=O)c(O)cc5c4)CC3)cc12 (centres unmarked) [Degrader 100] | < 50 nM | 150 to 500 nM
2 | Cc1nn(C2CCC(=O)NC2=O)c2ccc(N3CCC(CC(=O)Nc4ccc5c(F)c(N6CC(=O)NS6(=O)=O)c(O)cc5c4)CC3)cc12 (centres unmarked) [Degrader 101] | ≥ 500 nM | ≥ 500 nM
3 | Cn1c(=O)n(C2CCC(=O)NC2=O)c2ccc(C3CCN(C4CC(C(=O)Nc5ccc6cc(N7CC(=O)NS7(=O)=O)ccc6c5)C4)CC3(F)F)cc21 (centres unmarked) [Degrader 102] | 50 to 150 nM | 50 to 150 nM
4 | Cn1c(=O)n(C2CCC(=O)NC2=O)c2ccc(Nc3ccn(CC(=O)Nc4ccc5c(F)c(N6CC(=O)NS6(=O)=O)c(O)cc5c4)n3)cc21 (centres unmarked) [Degrader 107] | 50 to 150 nM | 50 to 150 nM
5 | Cn1c(=O)n(C2CCC(=O)NC2=O)c2ccc(-c3ccc(NCC4CC4C(=O)Nc4ccc5c(F)c(N6CC(=O)NS6(=O)=O)c(O)cc5c4)cc3)cc21 (centres unmarked) [Degrader 108] | 50 to 150 nM | 50 to 150 nM
6 | Cn1c(=O)n(C2CCC(=O)NC2=O)c2ccc(N3CCC(O)(CC(=O)N4CC[C@@H](c5ccc6cc(O)c(N7CC(=O)NS7(=O)=O)c(F)c6c5)C4)CC3)cc21 (some centres unmarked) [Degrader 114] | ≥ 500 nM | ≥ 500 nM
7 | Cn1c(=O)n(C2CCC(=O)NC2=O)c2ccc(N3CCC(O)(CC(=O)N4CC[C@H](c5ccc6cc(O)c(N7CC(=O)NS7(=O)=O)c(F)c6c5)C4)CC3)cc21 (some centres unmarked) [Degrader 115] | 150 to 500 nM | 150 to 500 nM
8 | Cn1c(=O)n(C2CCC(=O)NC2=O)c2ccc(C3CCN(CC(=O)N4CC[C@H](Oc5ccc6cc(O)c(N7CC(=O)NS7(=O)=O)c(F)c6c5)C4)CC3(F)F)cc21 (some centres unmarked) [Degrader 116] | ≥ 500 nM | ≥ 500 nM
9 | Cn1c(=O)n(C2CCC(=O)NC2=O)c2ccc(C3CCN(CC(=O)N4CC[C@@H](Oc5ccc6cc(O)c(N7CC(=O)NS7(=O)=O)c(F)c6c5)C4)CC3(F)F)cc21 (some centres unmarked) [Degrader 117] | ≥ 500 nM | ≥ 500 nM
10 | Cn1c(=O)n(C2CCC(=O)NC2=O)c2ccc(N3CCc4cc(CC(=O)Nc5ccc6c(F)c(N7CC(=O)NS7(=O)=O)c(O)cc6c5)ccc43)cc21 (centres unmarked) [Degrader 119] | 150 to 500 nM | 50 to 150 nM
11 | Cn1c(=O)n(C2CCC(=O)NC2=O)c2ccc(-n3ccc4cc(CC(=O)Nc5ccc6c(F)c(N7CC(=O)NS7(=O)=O)c(O)cc6c5)ccc43)cc21 (centres unmarked) [Degrader 120] | 150 to 500 nM | 50 to 150 nM
12 | Cn1c(=O)n(C2CCC(=O)NC2=O)c2cnc(-c3ccc(CC(=O)Nc4ccc5c(F)c(N6CC(=O)NS6(=O)=O)c(O)cc5c4)cc3)cc21 (centres unmarked) [Degrader 122] | ≥ 500 nM | 150 to 500 nM
13 | Cn1cc(N2CCC(=O)NC2=O)c2cc(F)c(-c3ccc(CC(=O)Nc4ccc5c(F)c(N6CC(=O)NS6(=O)=O)c(O)cc5c4)cc3)cc21 [Degrader 125] | 150 to 500 nM | 150 to 500 nM
14 | O=C1CCC(c2ccc(C3CCN(CC(=O)Nc4ccc5c(F)c(N6CC(=O)NS6(=O)=O)c(O)cc5c4)CC3)cc2)C(=O)N1 (centres unmarked) [Degrader 128] | 150 to 500 nM | ≥ 500 nM
15 | Cn1nc(N2CCC(=O)NC2=O)c2cc(F)c(N3CCC(CC(=O)Nc4ccc5c(F)c(N6CC(=O)NS6(=O)=O)c(O)cc5c4)CC3)cc21 [Degrader 129] | 50 to 150 nM | 150 to 500 nM
16 | CCn1c(=O)n(C2CCC(=O)NC2=O)c2ccc([C@@H]3CCN(CC(=O)Nc4ccc5c(F)c(N6CC(=O)NS6(=O)=O)c(O)cc5c4)C[C@H]3F)cc21 (some centres unmarked) [Degrader 131] | 150 to 500 nM | ≥ 500 nM
17 | Cn1nc(N2CCC(=O)NC2=O)c2cc(F)c(N3CCC(CC(=O)Nc4ccc5c(F)c(N6CC(=O)NS6(=O)=O)c(O)cc5c4)CC3)cc21 [Degrader 134] | 50 to 150 nM | 150 to 500 nM
18 | Cn1c(=O)n(C2CCC(=O)NC2=O)c2cccc(N3CCC[C@@H](OCC(=O)Nc4ccc5c(F)c(N6CC(=O)NS6(=O)=O)c(O)cc5c4)C3)c21 (some centres unmarked) [Degrader 135] | ≥ 500 nM | ≥ 500 nM
19 | Cn1c(=O)n(C2CCC(=O)NC2=O)c2ccc(Cc3ccc(CC(=O)Nc4ccc5c(F)c(N6CC(=O)NS6(=O)=O)c(O)cc5c4)cc3)cc21 (centres unmarked) [Degrader 136] | < 50 nM | 50 to 150 nM

Now from value to compound:

Row | DC50 (PTPN2 [1]) | DC50 (PTPN2 [2]) | SMILES
20 | 50 to 150 nM | 150 to 500 nM | Cn1c(=O)n(C2CCC(=O)NC2=O)c2ccc(N3CC4(CC(OCC(=O)Nc5ccc6c(F)c(N7CC(=O)NS7(=O)=O)c(O)cc6c5)C4)C3)cc21 (centres unmarked) [Degrader 96]
21 | 50 to 150 nM | 150 to 500 nM | Cn1c(=O)n(C2CCC(=O)NC2=O)c2ccc(N3CCCC(CC(=O)Nc4ccc5c(F)c(N6CC(=O)NS6(=O)=O)c(O)cc5c4)CC3)cc21 (centres unmarked) [Degrader 97]
22 | < 50 nM | 50 to 150 nM | COC1(CC(=O)Nc2ccc3c(F)c(N4CC(=O)NS4(=O)=O)c(O)cc3c2)CCN(c2ccc3c(c2)n(C)c(=O)n3C2CCC(=O)NC2=O)CC1 (centres unmarked) [Degrader 99]
23 | < 50 nM | ≥ 500 nM | C[C@H](C(=O)Nc1ccc2c(F)c(N3CC(=O)NS3(=O)=O)c(O)cc2c1)N1CCC(c2ccc3c(c2)n(C)c(=O)n3C2CCC(=O)NC2=O)CC1 (some centres unmarked) [Degrader 103]
24 | 150 to 500 nM | 150 to 500 nM | C[C@H](C(=O)Nc1ccc2c(F)c(N3CC(=O)NS3(=O)=O)c(O)cc2c1)C1CCN(c2ccc3c(c2)n(C)c(=O)n3C2CCC(=O)NC2=O)CC1 (some centres unmarked) [Degrader 105]
25 | 150 to 500 nM | 150 to 500 nM | C[C@@H](C(=O)Nc1ccc2c(F)c(N3CC(=O)NS3(=O)=O)c(O)cc2c1)C1CCN(c2ccc3c(c2)n(C)c(=O)n3C2CCC(=O)NC2=O)CC1 (some centres unmarked) [Degrader 106]
26 | 150 to 500 nM | 150 to 500 nM | Cn1c(=O)n(C2CCC(=O)NC2=O)c2ccc(N3[C@@H]4CC[C@H]3C[C@@H](CC(=O)Nc3ccc5c(F)c(N6CC(=O)NS6(=O)=O)c(O)cc5c3)C4)cc21 (some centres unmarked) [Degrader 109]
27 | 50 to 150 nM | 150 to 500 nM | Cn1c(=O)n(C2CCC(=O)NC2=O)c2ccc(N3[C@@H]4CC[C@H]3C[C@H](CC(=O)Nc3ccc5c(F)c(N6CC(=O)NS6(=O)=O)c(O)cc5c3)C4)cc21 (some centres unmarked) [Degrader 110]
28 | < 50 nM | 50 to 150 nM | Cn1c(=O)n(C2CCC(=O)NC2=O)c2ccc([C@@H]3CCN(CC(=O)Nc4ccc5c(F)c(N6CC(=O)NS6(=O)=O)c(O)cc5c4)C[C@H]3O)cc21 (some centres unmarked) [Degrader 111]
29 | < 50 nM | 50 to 150 nM | Cn1c(=O)n(C2CCC(=O)NC2=O)c2ccc([C@H]3CCN(CC(=O)Nc4ccc5c(F)c(N6CC(=O)NS6(=O)=O)c(O)cc5c4)C[C@@H]3O)cc21 (some centres unmarked) [Degrader 112]
30 | 50 to 150 nM | 150 to 500 nM | Cn1c(=O)n(C2CCC(=O)NC2=O)c2ccc(C3CCN(CC(=O)Nc4ccc5c(F)c(N6CC(=O)NS6(=O)=O)c(O)cc5c4)CC3=O)cc21 (centres unmarked) [Degrader 113]
31 | ≥ 500 nM | 150 to 500 nM | Cn1c(=O)n(C2CCC(=O)NC2=O)c2ccc(N3CCC(C(C)(C)C(=O)Nc4ccc5c(F)c(N6CC(=O)NS6(=O)=O)c(O)cc5c4)CC3)cc21 (centres unmarked) [Degrader 118]
32 | < 50 nM | 50 to 150 nM | C[C@H]1CC(c2ccc3c(c2)n(C)c(=O)n3C2CCC(=O)NC2=O)CCN1CC(=O)Nc1ccc2c(F)c(N3CC(=O)NS3(=O)=O)c(O)cc2c1 (some centres unmarked) [Degrader 121]
33 | < 50 nM | 150 to 500 nM | Cn1c(=O)n(C2CCC(=O)NC2=O)c2ccc([C@@H]3CCN(CC(=O)Nc4ccc5c(F)c(N6CC(=O)NS6(=O)=O)c(O)cc5c4)C3)cc21 (some centres unmarked) [Degrader 124]
34 | 50 to 150 nM | 50 to 150 nM | C[C@H]1CN(c2ccc3c(c2)n(C)c(=O)n3C2CCC(=O)NC2=O)CC[C@H]1CC(=O)Nc1ccc2c(F)c(N3CC(=O)NS3(=O)=O)c(O)cc2c1 (some centres unmarked) [Degrader 126]
35 | 50 to 150 nM | 50 to 150 nM | C[C@@H]1CN(c2ccc3c(c2)n(C)c(=O)n3C2CCC(=O)NC2=O)CC[C@@H]1CC(=O)Nc1ccc2c(F)c(N3CC(=O)NS3(=O)=O)c(O)cc2c1 (some centres unmarked) [Degrader 127]
36 | 50 to 150 nM | 50 to 150 nM | C[C@@H]1CN(c2ccc3c(c2)n(C)c(=O)n3C2CCC(=O)NC2=O)CC[C@H]1CC(=O)Nc1ccc2c(F)c(N3CC(=O)NS3(=O)=O)c(O)cc2c1 (some centres unmarked) [Degrader 132]
37 | 50 to 150 nM | 50 to 150 nM | C[C@H]1CN(c2ccc3c(c2)n(C)c(=O)n3C2CCC(=O)NC2=O)CC[C@@H]1CC(=O)Nc1ccc2c(F)c(N3CC(=O)NS3(=O)=O)c(O)cc2c1 (some centres unmarked) [Degrader 133]
